This is an account of results in patent US10479780B2, “Aminopyrazole derivatives” (Chugai Seiyaku Kabushiki Kaisha, priority 2015, dated 2019).

Holding throughout (assay type): biochemical
One experiment has as its target T1, human Src enzyme (Homo sapiens, UniProt P12931).
T1 construct: purchased Carna Biosciences, Inc. 08-173
Put plainly: Src enzyme inhibitory activity (time-resolved fluorometry, biotinylated peptide phosphorylation). The following applies: read-out: SRC_IC50. Put shortly: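 Compounds were tested for blocking tyrosine phosphorylation of a biotinylated peptide substrate by recombinant human Src. Phosphorylated product was quantified by time-resolved fluorometry using europium cryptate and XL665 conjugates, and IC50 was calculated against the compound-free control.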

The next experiment has as its target T2, human Yes1 enzyme (Homo sapiens, UniProt P07947).
T2 construct: made in house
As to the kind of experiment: Yes1 enzyme inhibitory activity (time-resolved fluorometry, biotinylated peptide phosphorylation). The following applies: read-out: YES_IC50. The method, boiled down: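 Inhibition was expressed against a compound-free control to give IC50, using TR-FRET read-out (Eu-cryptate anti-pTyr antibody, streptavidin-XL665).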

Another experiment deals with T3, human Lck enzyme (Homo sapiens, UniProt P06239).
T3 construct: purchased Carna Biosciences, Inc. 08-170
T3 sequence (P06239 whole entry): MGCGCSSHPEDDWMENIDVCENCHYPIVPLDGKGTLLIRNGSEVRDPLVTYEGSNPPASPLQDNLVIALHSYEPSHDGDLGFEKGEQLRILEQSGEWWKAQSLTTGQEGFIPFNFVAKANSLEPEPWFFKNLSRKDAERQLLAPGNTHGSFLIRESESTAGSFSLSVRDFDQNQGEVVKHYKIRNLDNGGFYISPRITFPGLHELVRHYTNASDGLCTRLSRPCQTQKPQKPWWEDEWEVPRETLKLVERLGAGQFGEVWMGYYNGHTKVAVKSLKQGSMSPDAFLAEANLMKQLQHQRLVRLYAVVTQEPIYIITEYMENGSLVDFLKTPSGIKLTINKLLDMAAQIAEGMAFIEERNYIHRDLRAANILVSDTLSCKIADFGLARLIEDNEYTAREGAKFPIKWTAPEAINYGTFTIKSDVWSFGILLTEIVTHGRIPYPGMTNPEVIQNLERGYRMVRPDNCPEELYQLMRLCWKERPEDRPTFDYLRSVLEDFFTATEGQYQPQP
As to the kind of experiment: Lck enzyme inhibitory activity (time-resolved fluorometry, biotinylated peptide phosphorylation). The following applies: read-out: LCK_IC50. The method, boiled down:
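Readout pairs a europium cryptate-labelled anti-phosphotyrosine antibody with XL665-streptavidin, measured by time-resolved fluorescence. IC50 derived from percent inhibition against untreated controls.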

T2 sequence (P07947 whole entry): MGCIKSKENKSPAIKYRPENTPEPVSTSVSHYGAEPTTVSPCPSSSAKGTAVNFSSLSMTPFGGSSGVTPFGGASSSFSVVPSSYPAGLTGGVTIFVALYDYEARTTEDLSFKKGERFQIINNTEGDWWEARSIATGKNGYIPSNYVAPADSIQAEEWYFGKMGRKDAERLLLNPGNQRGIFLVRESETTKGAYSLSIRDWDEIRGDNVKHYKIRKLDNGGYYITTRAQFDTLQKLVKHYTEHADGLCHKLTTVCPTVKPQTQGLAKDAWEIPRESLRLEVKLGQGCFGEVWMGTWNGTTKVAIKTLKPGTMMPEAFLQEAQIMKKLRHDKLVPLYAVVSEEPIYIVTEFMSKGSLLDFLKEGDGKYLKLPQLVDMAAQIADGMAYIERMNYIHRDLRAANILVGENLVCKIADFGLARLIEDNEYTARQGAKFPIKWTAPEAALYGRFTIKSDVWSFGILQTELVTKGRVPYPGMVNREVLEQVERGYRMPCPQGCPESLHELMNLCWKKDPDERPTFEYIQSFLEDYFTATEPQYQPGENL
T1 sequence (P12931 whole entry): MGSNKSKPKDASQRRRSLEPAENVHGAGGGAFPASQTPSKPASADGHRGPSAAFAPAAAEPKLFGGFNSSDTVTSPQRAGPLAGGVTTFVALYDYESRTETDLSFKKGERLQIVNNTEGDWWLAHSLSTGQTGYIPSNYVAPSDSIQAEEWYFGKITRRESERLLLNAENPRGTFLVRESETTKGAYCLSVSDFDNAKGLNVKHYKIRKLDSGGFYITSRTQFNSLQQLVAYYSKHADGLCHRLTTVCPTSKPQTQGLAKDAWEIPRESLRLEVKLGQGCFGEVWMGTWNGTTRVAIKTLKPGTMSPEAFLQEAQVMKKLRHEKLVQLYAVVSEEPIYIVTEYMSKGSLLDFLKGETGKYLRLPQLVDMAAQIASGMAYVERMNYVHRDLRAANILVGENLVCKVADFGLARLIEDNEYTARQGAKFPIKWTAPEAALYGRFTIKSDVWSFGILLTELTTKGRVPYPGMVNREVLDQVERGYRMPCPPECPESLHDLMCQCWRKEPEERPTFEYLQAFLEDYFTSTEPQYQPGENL

For the compound `Cc1cc(Oc2c(F)cccc2F)ncc1-n1ncc(C(=O)c2cc3cc(OCC(F)F)c(NS(=O)(=O)C4CCOCC4)cc3[nH]2)c1N` [Example 5-1-319, N-[2-[5-amino-1-[6-(2,6-difluorophenoxy)-4-methylpyridin-3-yl]pyrazole-4-carbonyl]-5-(2,2-difluoroethoxy)-1H-indol-6-yl]oxane-4-sulfonamide], the IC50 at human Src enzyme was determined as 88 nM; on human Yes1 enzyme, 2.8 nM; on human Lck enzyme, 18 nM.

`Cc1cc(Oc2c(F)cccc2F)ncc1-n1ncc(C(=O)c2cc3cc(SC(F)F)c(NS(=O)(=O)CCCF)cc3[nH]2)c1N` [Example 5-1-320, N-[2-[5-amino-1-[6-(2,6-difluorophenoxy)-4-methylpyridin-3-yl]pyrazole-4-carbonyl]-5-(difluoromethylsulfanyl)-1H-indol-6-yl]-3-fluoropropane-1-sulfonamide]: the figures for the IC50 at human Src enzyme, on human Yes1 enzyme and on human Lck enzyme were 680 nM, 18 nM and 140 nM, respectively.

For `Cc1cc(Oc2c(F)cccc2F)ncc1-n1ncc(C(=O)c2cc3cc(OCC(F)F)c(N4CC(C)(C)NS4(=O)=O)cc3[nH]2)c1N` [Example 5-1-321, [5-amino-1-[6-(2,6-difluorophenoxy)-4-methylpyridin-3-yl]pyrazol-4-yl]-[5-(2,2-difluoroethoxy)-6-(4,4-dimethyl-1,1-dioxo-1,2,5-thiadiazolidin-2-yl)-1H-indol-2-yl]methanone], the IC50 at human Src enzyme came to 130 nM; on human Yes1 enzyme, 5.8 nM; on human Lck enzyme it was 34 nM.

Consider `Cc1cc(Oc2ccccc2F)ccc1-n1ncc(C(=O)c2cc3cc(OCC(F)F)c(N4CC(C)(C)NS4(=O)=O)cc3[nH]2)c1N` [Example 5-1-322, [5-amino-1-[4-(2-fluorophenoxy)-2-methylphenyl]pyrazol-4-yl]-[5-(2,2-difluoroethoxy)-6-(4,4-dimethyl-1,1-dioxo-1,2,5-thiadiazolidin-2-yl)-1H-indol-2-yl]methanone], for which the IC50 on human Src enzyme is 70 nM; at human Yes1 enzyme it was 4.1 nM; on human Lck enzyme, 22 nM.

`Cc1cc(Oc2ccccc2F)ccc1-n1ncc(C(=O)c2cc3cc(OCC(F)F)c(N4CC5(CCCC5)NS4(=O)=O)cc3[nH]2)c1N` [Example 5-1-323, [5-amino-1-[4-(2-fluorophenoxy)-2-methylphenyl]pyrazol-4-yl]-[5-(2,2-difluoroethoxy)-6-(2,2-dioxo-2λ6-thia-1,3-diazaspiro[4.4]nonan-3-yl)-1H-indol-2-yl] methanone]: the results for the IC50 at human Src enzyme, at human Yes1 enzyme and at human Lck enzyme were 230 nM, 9.1 nM and 40 nM, respectively.

With `Cc1cc(Oc2c(F)cccc2F)ncc1-n1ncc(C(=O)c2cc3cc(SC(F)F)c(N4C(=O)NC(C)(C)C4=O)cc3[nH]2)c1N` [Example 5-1-324, 3-[2-[5-amino-1-[6-(2,6-difluorophenoxy)-4-methylpyridin-3-yl]pyrazole-4-carbonyl]-5-(difluoromethylsulfanyl)-1H-indol-6-yl]-6,5-dimethylimidazolidine-2,4-dione], the IC50 at human Src enzyme was 230 nM; at human Yes1 enzyme, 10 nM; on human Lck enzyme, 19 nM.

Regarding `Cc1cc(Oc2ccccc2F)ccc1-n1ncc(C(=O)c2cc3cc(OCC(F)F)c(NS(=O)(=O)C4CCOCC4)cc3[nH]2)c1N` [Example 5-1-325, N-[2-[5-amino-1-[4-(2-fluorophenoxy)-2-methylphenyl]pyrazole-4-carbonyl]-5-(2,2-difluoroethoxy)-1H-indol-6-yl]oxane-4-sulfonamide], the IC50 at human Src enzyme stood at 32 nM; on human Yes1 enzyme it was 1.6 nM; on human Lck enzyme it was 18 nM.

Regarding `Cc1cc(Oc2ccccc2F)ncc1-n1ncc(C(=O)c2cc3cc(OCC(F)F)c(NS(=O)(=O)C4CCOCC4)cc3[nH]2)c1N` [Example 5-1-326, N-[2-[5-amino-1-[6-(2-fluorophenoxy)-4-methylpyridin-3-yl]pyrazole-4-carbonyl]-5-(2,2-difluoroethoxy)-1H-indol-6-yl]oxane-4-sulfonamide], the IC50 on human Src enzyme stood at 54 nM; on human Yes1 enzyme, 0.85 nM; at human Lck enzyme, 25 nM.

`COc1cccc(S(=O)(=O)Nc2cc3[nH]c(C(=O)c4cnn(-c5cnc(Oc6c(F)cccc6F)cc5C)c4N)cc3cc2OCC(F)F)c1` [Example 5-1-327, N-[2-[5-amino-1-[6-(2,6-difluorophenoxy)-4-methylpyridin-3-yl]pyrazole-4-carbonyl]-5-(2,2-difluoroethoxy)-1H-indol-6-yl]-3-methoxybenzenesulfonamide]: the IC50 on human Src enzyme worked out at 920 nM; on human Yes1 enzyme it was 7.3 nM; at human Lck enzyme, 270 nM.

For the compound `Cc1cc(Oc2c(F)cccc2F)ncc1-n1ncc(C(=O)c2cc3cc(OCC(F)F)c(NS(=O)(=O)c4ccccc4Cl)cc3[nH]2)c1N` [Example 5-1-328, N-[2-[5-amino-1-[6-(2,6-difluorophenoxy)-4-methylpyridin-3-yl]pyrazole-4-carbonyl]-5-(2,2-difluoroethoxy)-1H-indol-6-yl]-2-chlorobenzenesulfonamide], the IC50 on human Src enzyme was 890 nM; on human Yes1 enzyme, 14 nM; at human Lck enzyme it was 230 nM.

For the compound `COc1ccccc1S(=O)(=O)Nc1cc2[nH]c(C(=O)c3cnn(-c4cnc(Oc5c(F)cccc5F)cc4C)c3N)cc2cc1OCC(F)F` [Example 5-1-329, N-[2-[5-amino-1-[6-(2,6-difluorophenoxy)-4-methylpyridin-3-yl]pyrazole-4-carbonyl]-5-(2,2-difluoroethoxy)-1H-indol-6-yl]-2-methoxybenzenesulfonamide], the IC50 at human Src enzyme is 720 nM; at human Yes1 enzyme it was 9 nM; at human Lck enzyme it was 150 nM.

Consider `Cc1cc(Oc2c(F)cccc2F)ncc1-n1ncc(C(=O)c2cc3cc(OCC(F)F)c(NS(=O)(=O)c4cc(F)cc(F)c4)cc3[nH]2)c1N` [Example 5-1-330, N-[2-[5-amino-1-[6-(2,6-difluorophenoxy)-4-methylpyridin-3-yl]pyrazole-4-carbonyl]-5-(2,2-drfluoroethoxy)-1H-indol-6-yl]-3,5-difluorobenzenesulfonamide], for which the IC50 at human Src enzyme was 700 nM; on human Yes1 enzyme it was 11 nM; at human Lck enzyme, 200 nM.

Turning to `COc1ccc(Cl)c(S(=O)(=O)Nc2cc3[nH]c(C(=O)c4cnn(-c5ccc(Oc6ccccc6F)cc5C)c4N)cc3cc2OCC(F)F)c1` [Example 5-1-331, N-[2-[5-amino-1-[4-(2-fluorophenoxy)-2-methylphenyl]pyrazole-4-carbonyl]-5-(2,2-difluoroethoxy)-1H-indol-6-yl]-2-chloro-5-methoxybenzenesulfonamide], the IC50 at human Src enzyme came out at 330 nM; at human Yes1 enzyme, 7 nM; at human Lck enzyme it was 180 nM.

For `Cc1cc(Oc2c(F)cccc2F)ncc1-n1ncc(C(=O)c2cc3cc(OCC(F)F)c(N4C(=O)NC5(CCNCC5)C4=O)cc3[nH]2)c1N` [Example 5-1-332, 3-[2-[5-amino-1-[6-(2,6-difluorophenoxy)-4-methylpyridin-3-yl]pyrazole-4-carbonyl]-5-(2,2-difluoroethoxy)-1H-indol-6-yl]-1,3,8-triazaspiro[4.5]decane-2,4-dione], the values for the IC50 at human Src enzyme, at human Yes1 enzyme and on human Lck enzyme were 12 nM, 0.79 nM and 2.5 nM, respectively.

Take `Cc1cc2cc(C(=O)c3cnn(-c4cnc(Oc5ccccc5F)cc4C)c3N)[nH]c2cc1NS(=O)(=O)C1CCOCC1` [Example 5-1-333, N-[2-[5-amino-1-[6-(2-fluorophenoxy)-4-methylpyridin-3-yl]pyrazole-4-carbonyl]-5-methyl-1H-indol-6-yl]oxane-4-sulfonamide]: the figures for the IC50 on human Src enzyme, on human Yes1 enzyme and on human Lck enzyme were 140 nM, 2 nM and 19 nM, respectively.

On to `Cc1cc2cc(C(=O)c3cnn(-c4cnc(Oc5ccccc5F)cc4C)c3N)[nH]c2cc1N1C(=O)NC(C)(C)C1=O` [Example 5-1-334, 3-[2-[5-amino-1-[6-(2-fluorophenoxy)-4-methylpyridin-3-yl]pyrazole-4-carbonyl]-5-methyl-1H-indol-6-yl]-5,5-dimethylimidazolidine-2,4-dione], for which the IC50 at human Src enzyme was 41 nM; at human Yes1 enzyme it was 1.3 nM; at human Lck enzyme it was 4 nM.

Regarding `Cc1cc(-n2ncc(C(=O)c3cc4cc(OC5CCN(C6CCCC6)CC5)c(-c5ccccc5C)cc4[nH]3)c2N)ccc1Oc1ccccc1F` [Example 5-1-335, [5-amino-1-[4-(2-fluorophenoxy)-3-methylphenyl]pyrazol-4-yl]-[5-(1-cyclopentylpiperidin-4-yl)oxy-6-(2-methylphenyl)-1H-indol-2-yl]methanone], the IC50 came to 1700 nM on human Src enzyme, 2.7 nM on human Yes1 enzyme and 120 nM at human Lck enzyme.

Turning to `Cc1ccccc1-c1cc2[nH]c(C(=O)c3cnn(-c4cnc(Oc5c(F)cccc5F)cc4C)c3N)cc2cc1OC1CCN(C2CCCC2)CC1` [Example 5-1-337, [5-amino-1-[6-(2,6-difluorophenoxy)-4-methylpyridin-3-yl]pyrazol-4-yl]-[5-(1-cyclopentylpiperidin-4-yl)oxy-6-(2-methylphenyl)-1H-indol-2-yl]methanone], the IC50 on human Src enzyme turned out to be 120 nM; on human Yes1 enzyme it was 2.3 nM; at human Lck enzyme, 18 nM.

`Cc1ccccc1-c1cc2[nH]c(C(=O)c3cnn(-c4cnc(Oc5c(F)cccc5F)cc4C)c3N)cc2cc1OC1CCN(C2CS(=O)(=O)C2)CC1` [Example 5-1-338, [5-amino-1-[6-(2,6-difluorophenoxy)-4-methylpyridin-3-yl]pyrazol-4-yl]-[5-[1-(1,1-dioxothietan-3-yl)piperidin-4-yl]oxy-6-(2-methylphenyl)-1H-indol-2-yl]methanone]: the IC50 at human Src enzyme amounted to 180 nM; at human Yes1 enzyme, 3 nM; at human Lck enzyme, 30 nM.
